The test addresses T1, Cdc7 (BEV coexpressed huCDC7/DBF4) (Homo sapiens, UniProt O00311).
T1 construct: made in house; host or cells: baculovirus expression vector (BEV) system
Briefly: Cdc7 enzyme inhibition assay ([33P]-ATP, biotinylated peptide substrate, FlashPlate). The class given is biochemical. The method, then: Cdc7 (BEV coexpressed huCDC7/DBF4) is prepared internally. Cdc7 assays are conducted as follows with final concentrations as listed. In 384-well v-bottom polypropylene plates, 6 L compound (2% DMSO), is mixed with 6 µL of Cdc7 (2 μg/mL), and Jerini peptide substrate A-All (biotin-C6linker-TPSDSLIYDDGLS) (2 μM), followed by immediate initiation with 6 L […] (1 μM, 20 mCi/μmol) using a reaction buffer comprising 25 mM HEPES, pH 7.5, 1 mM DTT, 10 mM MgCl2, 100 μM Na3VO4, 0.075 mg/ml Triton X-100. Reactions are quenched after 1 hr by the addition of 90 L stop buffer (50 mM EDTA, 2M NaCl). 85 μL of the stopped reactions are transferred to 384-well streptavidin-coated plates (FlashPlate Plus, Perkin Elmer), incubated 30 minutes at room temperature and washed 3 times with 0.05% Tween-20/PBS using an ELX-405 automated plate washer (BioTek), and counted on a TopCount Scintillation Plate Reader (Packard). IC50 values are determined via non-linear regression fitting of enzyme inhibition data and corresponding Ki values are generated assuming ATP-competitive (equilibrium) inhibition and using the experimentally determined apparent ATP Km of 0.7 μM (as determined using the above assay condition, but varying ATP). Table 1 depicts enzyme inhibition data (Ki) for exemplary compounds. In Table 1, “A” represents a Ki of less than 10 nM, “B” represents a Ki of between 10 nM and 100 nM, and “C” represents a Ki of greater than 100 nM.
Table 2 depicts enzyme inhibition data (Ki) for examples 27-43 using the same assay as example 26. In Table 2, “A” represents a Ki of less than 10 nM, “B” represents a Ki of between 10 nM and 100 nM, and “C” represents a Ki of greater than 100 nM.

The mark [1] stands for this setting: Table 1, Ki from IC50 assuming ATP-competitive inhibition, apparent ATP Km 0.7 μM, 1 μM ATP.
The mark [2] stands for this setting: Table 2, same assay as example 26.

T1 sequence (O00311 whole entry): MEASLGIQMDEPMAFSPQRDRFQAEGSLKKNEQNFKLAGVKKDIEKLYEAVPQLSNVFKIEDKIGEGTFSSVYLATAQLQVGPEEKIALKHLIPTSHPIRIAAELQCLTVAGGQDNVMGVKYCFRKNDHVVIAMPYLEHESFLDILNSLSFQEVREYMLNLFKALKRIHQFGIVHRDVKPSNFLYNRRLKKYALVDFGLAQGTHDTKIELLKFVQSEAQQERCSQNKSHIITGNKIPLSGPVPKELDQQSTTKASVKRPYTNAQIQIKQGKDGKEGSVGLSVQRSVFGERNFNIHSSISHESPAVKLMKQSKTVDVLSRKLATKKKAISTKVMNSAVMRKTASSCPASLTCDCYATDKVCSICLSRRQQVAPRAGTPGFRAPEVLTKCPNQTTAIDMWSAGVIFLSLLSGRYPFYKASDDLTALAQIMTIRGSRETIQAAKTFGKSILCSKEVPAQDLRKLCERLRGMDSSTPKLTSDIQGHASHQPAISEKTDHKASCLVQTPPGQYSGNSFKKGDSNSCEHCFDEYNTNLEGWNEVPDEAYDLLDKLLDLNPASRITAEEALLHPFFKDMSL
T1 sequence (Q9UBU7 whole entry partner): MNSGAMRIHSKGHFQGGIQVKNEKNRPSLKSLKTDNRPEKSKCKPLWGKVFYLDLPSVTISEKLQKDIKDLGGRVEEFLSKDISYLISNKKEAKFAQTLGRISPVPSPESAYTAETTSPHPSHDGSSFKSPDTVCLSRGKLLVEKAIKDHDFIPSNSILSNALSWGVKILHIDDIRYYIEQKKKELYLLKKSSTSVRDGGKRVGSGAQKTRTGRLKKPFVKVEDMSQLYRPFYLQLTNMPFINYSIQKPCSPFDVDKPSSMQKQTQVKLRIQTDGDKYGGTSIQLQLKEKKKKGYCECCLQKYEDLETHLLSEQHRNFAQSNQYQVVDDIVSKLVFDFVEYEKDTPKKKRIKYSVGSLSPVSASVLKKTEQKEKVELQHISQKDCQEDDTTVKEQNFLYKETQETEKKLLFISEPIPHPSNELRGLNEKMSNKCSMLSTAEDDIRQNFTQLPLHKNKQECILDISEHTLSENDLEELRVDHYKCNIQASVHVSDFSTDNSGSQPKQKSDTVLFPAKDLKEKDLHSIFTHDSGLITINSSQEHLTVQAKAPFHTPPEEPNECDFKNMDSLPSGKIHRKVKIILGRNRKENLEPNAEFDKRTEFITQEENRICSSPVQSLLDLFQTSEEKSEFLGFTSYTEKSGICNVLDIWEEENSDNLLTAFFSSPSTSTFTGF

As to `O=C1CCC(C(=O)N[C@H]2CC[C@H](Nc3cc(-c4c[nH]c5nccnc45)cc(Cl)n3)CC2)N1` (relative stereo) [Example 20, N-(trans 4-(6-chloro-4-(5H-pyrrolo[3,2-b]pyrazin-7-yl)pyridin-2-ylamino)cyclohexyl)-5-oxopyrrolidine-2-carboxamide], under setting [1], the Ki was less than 10 nM.

`CCN1CCC(C(=O)N[C@H]2CC[C@H](Nc3cc(-c4c[nH]c5nccnc45)cc(Cl)n3)CC2)C1` (relative stereo) [Example 29, N-(trans-4-{[6-chloro-4-(5H-pyrrolo[2,3-b]pyrazin-7-yl)pyridin-2-yl]amino}cyclohexyl)-1-ethylpyrrolidine-3-carboxamide]: the Ki under setting [2] is less than 10 nM.

The molecule `C[C@@H](C(=O)N[C@H]1CC[C@H](Nc2cc(-c3c[nH]c4nccnc34)cc(Cl)n2)CC1)N(C)C` (relative stereo) [Example 32, N-(trans-4-{[6-chloro-4-(5H-pyrrolo[2,3-b]pyrazin-7-yl)pyridin-2-yl]amino}cyclohexyl)-N^2,N^2-dimethylalaninamide] gave a Ki under setting [2] of less than 10 nM.

Take `Clc1cc(-c2c[nH]c3nccnc23)cc(NC2CCCCC2)n1` [Example 1, 6-chloro-N-cyclohexyl-4-(5H-pyrrolo[3,2-b]pyrazin-7-yl)pyridin-2-amine]: under setting [1], the Ki was less than 10 nM.

With `O[C@H]1CC[C@H](Nc2cc(-c3c[nH]c4nccnc34)cc(Cl)n2)CC1` [Example 2, Trans 4-(6-chloro-4-(5H-pyrrolo[3,2-b]pyrazin-7-yl)pyridin-2-ylamino)cyclohexanol], the Ki under setting [1] is less than 10 nM.

For `Clc1cc(-c2c[nH]c3nccnc23)cc(NC2CCCNC2)n1` (centres unmarked) [Example 3, 6-chloro-N-(piperidin-3-yl)-4-(5H-pyrrolo[2,3-b]pyrazin-7-yl)pyridin-2-amine], under setting [1], the Ki was less than 10 nM.

Consider `CCN1CCCC(Nc2cc(-c3c[nH]c4nccnc34)cc(Cl)n2)C1` (centres unmarked) [Example 4, 6-chloro-N-(1-ethylpiperidin-3-yl)-4-(5H-pyrrolo[2,3-b]pyrazin-7-yl)pyridin-2-amine], for which the Ki under setting [1] is less than 10 nM.

For the molecule `O=C(C1CC1)N1CCCC(Nc2cc(-c3c[nH]c4nccnc34)cc(Cl)n2)C1` (centres unmarked) [Example 5, (3-(6-chloro-4-(5H-pyrrolo[2,3-b]pyrazin-7-yl)pyridin-2-ylamino)piperidin-1-yl)(cyclopropyl)methanone], the Ki under setting [1] is less than 10 nM.

For `CS(=O)(=O)N1CCCC(Nc2cc(-c3c[nH]c4nccnc34)cc(Cl)n2)C1` (centres unmarked) [Example 6, 6-chloro-N-(1-(methylsulfonyl)piperidin-3-yl)-4-(5H-pyrrolo[2,3-b]pyrazin-7-yl)pyridin-2-amine], the Ki under setting [1] was less than 10 nM.

As for `N[C@H]1CC[C@H](Nc2cc(-c3c[nH]c4nccnc34)cc(Cl)n2)CC1` [Example 7, Trans N^1-(6-chloro-4-(5H-pyrrolo[2,3-b]pyrazin-7-yl)pyridin-2-yl)cyclohexane-1,4-diamine], under setting [1], the Ki is less than 10 nM.

On to `O=C(N[C@H]1CC[C@H](Nc2cc(-c3c[nH]c4nccnc34)cc(Cl)n2)CC1)C1CC1` [Example 8, N-(trans-4-(6-chloro-4-(5H-pyrrolo[2,3-b]pyrazin-7-yl)pyridin-2-ylamino)cyclohexyl)cyclopropanecarboxamide], for which the Ki under setting [1] was less than 10 nM.

Regarding `CN(C)[C@H]1CC[C@H](Nc2cc(-c3c[nH]c4nccnc34)cc(Cl)n2)CC1` [Example 9, trans-N^1-(6-chloro-4-(5H-pyrrolo[2,3-b]pyrazin-7-yl)pyridin-2-yl)-N^4,N^4-dimethylcyclohexane-1,4-diamine], the Ki under setting [1] is less than 10 nM.

On to `CS(=O)(=O)N1CCCC(CNc2cc(-c3c[nH]c4nccnc34)cc(Cl)n2)C1` (centres unmarked) [Example 10, 6-chloro-N-((1-(methylsulfonyl)piperidin-3-yl)methyl)-4-(5H-pyrrolo[2,3-b]pyrazin-7-yl)pyridin-2-amine], for which, under setting [1], the Ki was less than 10 nM.

In the case of `O=C(NC1CCCC(Nc2cc(-c3c[nH]c4nccnc34)cc(Cl)n2)C1)C1CC1` (centres unmarked) [Example 11, N-(3-(6-chloro-4-(5H-pyrrolo[2,3-b]pyrazin-7-yl)pyridin-2-ylamino)cyclohexyl)cyclopropanecarboxamide], the Ki under setting [1] is less than 10 nM.

For the molecule `CN(C)C1CCCC(Nc2cc(-c3c[nH]c4nccnc34)cc(Cl)n2)C1` (centres unmarked) [Example 12, N^1-(6-chloro-4-(5H-pyrrolo[2,3-b]pyrazin-7-yl)pyridin-2-yl)-N^3,N^3-dimethylcyclohexane-1,3-diamine], the Ki under setting [1] was less than 10 nM.

With `CS(=O)(=O)NC1CCCC(Nc2cc(-c3c[nH]c4nccnc34)cc(Cl)n2)C1` (centres unmarked) [Example 13, N-(3-(6-chloro-4-(5H-pyrrolo[2,3-b]pyrazin-7-yl)pyridin-2-ylamino)cyclohexyl)methanesulfonamide], the Ki under setting [1] was less than 10 nM.

Take `CCCCC(=O)Nc1cc(-c2c[nH]c3nccnc23)cc(Cl)n1` [Example 14, N-(6-chloro-4-(5H-pyrrolo[2,3-b]pyrazin-7-yl)pyridin-2-yl)pentanamide]: the Ki under setting [1] is less than 10 nM.

On to `O=C(Nc1cc(-c2c[nH]c3nccnc23)cc(Cl)n1)c1cccnc1` [Example 15, N-(6-chloro-4-(5H-pyrrolo[2,3-b]pyrazin-7-yl)pyridin-2-yl)nicotinamide], for which the Ki under setting [1] was less than 10 nM.

With `O=C(Nc1cc(-c2c[nH]c3nccnc23)cc(Cl)n1)C1CCNCC1` [Example 16, N-(6-chloro-4-(5H-pyrrolo[2,3-b]pyrazin-7-yl)pyridin-2-yl)piperidine-4-carboxamide], the Ki under setting [1] was less than 10 nM.

With `O=C(Nc1cc(-c2c[nH]c3nccnc23)cc(Cl)n1)c1ccccc1` [Example 17, N-(6-chloro-4-(5H-pyrrolo[2,3-b]pyrazin-7-yl)pyridin-2-yl)benzamide], the Ki under setting [1] was 10 to 100 nM.

Take `Nc1cc(-c2c[nH]c3nccnc23)cc(Cl)n1` [Example 18, 6-chloro-4-(5H-pyrrolo[2,3-b]pyrazin-7-yl)pyridin-2-amine]: under setting [1], the Ki was less than 10 nM.

In the case of `CC(C)(CN)CNc1cc(-c2c[nH]c3nccnc23)cc(Cl)n1` [Example 19, N^1-(6-chloro-4-(5H-pyrrolo[2,3-b]pyrazin-7-yl)pyridin-2-yl)-2,2-dimethylpropane-1,3-diamine], under setting [1], the Ki was less than 10 nM.

With `Clc1cc(-c2c[nH]c3nccnc23)nc(NC2CCCCC2)n1` [Example 21, 4-chloro-N-cyclohexyl-6-(5H-pyrrolo[3,2-b]pyrazin-7-yl)pyrimidin-2-amine], the Ki under setting [1] is greater than 100 nM.

`CCn1cc(-c2cc(Cl)nc(N[C@H]3CC[C@H](NC(=O)C4CC4)CC3)c2)c2nccnc21` [Example 22]: under setting [1], the Ki was greater than 100 nM.

Turning to `CN(C)CC(=O)NC1CCCC(Nc2cc(-c3c[nH]c4nccnc34)cc(Cl)n2)C1` (centres unmarked) [Example 23, N-(3-(6-chloro-4-(5H-pyrrolo[2,3-b]pyrazin-7-yl)pyridin-2-ylamino)cyclohexyl)-2-(dimethylamino)acetamide], the Ki under setting [1] is less than 10 nM.

Turning to `CCn1cc(-c2cc(Cl)nc(NC3CCCC(NC(=O)CN(C)C)C3)c2)c2nccnc21` (centres unmarked) [Example 24], the Ki under setting [1] was greater than 100 nM.

As for `O=S(=O)(NC1CCCC(Nc2cc(-c3c[nH]c4nccnc34)cc(Cl)n2)C1)c1ccco1` (centres unmarked) [Example 25, N-(3-(6-chloro-4-(5H-pyrrolo[2,3-b]pyrazin-7-yl)pyridin-2-ylamino)cyclohexyl)furan-2-sulfonamide], the Ki under setting [1] is less than 10 nM.

Molecule `CN1CCCC(Nc2cc(-c3c[nH]c4nccnc34)cc(Cl)n2)C1` (centres unmarked) [Example 27, 6-chloro-N-(1-methylpiperidin-3-yl)-4-(5H-pyrrolo[2,3-b]pyrazin-7-yl)pyridin-2-amine] yielded a Ki under setting [2] of less than 10 nM.

In turn, `CN1CCCC(CNc2cc(-c3c[nH]c4nccnc34)cc(Cl)n2)C1` (centres unmarked) [Example 28, 6-chloro-N-[(1-methylpiperidin-3-yl)methyl]-4-(5H-pyrrolo[2,3-b]pyrazin-7-yl)pyridin-2-amine] registered a Ki under setting [2] of less than 10 nM.

Take `O=C(N[C@H]1CC[C@H](Nc2cc(-c3c[nH]c4nccnc34)cc(Cl)n2)CC1)[C@@H]1CCN1` [Example 30, (2S)—N-(trans-4-{[6-chloro-4-(5H-pyrrolo[2,3-b]pyrazin-7-yl)pyridin-2-yl]amino}cyclohexyl)azetidine-2-carboxamide]: the Ki under setting [2] was less than 10 nM.

Under setting [2], `O=C1CC(C(=O)N[C@H]2CC[C@H](Nc3cc(-c4c[nH]c5nccnc45)cc(Cl)n3)CC2)CC(=O)N1` [Example 31, N-(trans-4-{[6-chloro-4-(5H-pyrrolo[2,3-b]pyrazin-7-yl)pyridin-2-yl]amino}cyclohexyl)-2,6-dioxopiperidine-4-carboxamide] displayed a Ki of less than 10 nM.

Turning to `O[C@H]1CC[C@H](Nc2cc(-c3c[nH]c4ncc(Cl)nc34)cc(Cl)n2)CC1` [Example 33, trans 4-{[6-chloro-4-(2-chloro-5H-pyrrolo[2,3-b]pyrazin-7-yl)pyridin-2-yl]amino}cyclohexanol], the Ki under setting [2] is less than 10 nM.
